From ChEMBL document CHEMBL1201862, “PubChem BioAssay data set” (2004)
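How tested: cells in 96-well plates exposed to compound for 48 hours at five concentrations. GI50 = concentration required for 50% inhibition of growth.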 Calls of active or inactive are those of the source. No stated cut-off is given here; in the data, active = GI50 up to about 1.1 µM and inactive = higher.

What was measured:
Experiment in all cases: inhibition of tumour cell growth, NCI panel, 48 h
OVCAR-4 = system: OVCAR-4
TK-10 = system: TK-10
HT-29 = system: HT-29
Malme-3M = system: Malme-3M
CAKI-1 = system: CAKI-1
HCC 2998 = system: HCC 2998
SF-268 = system: SF-268
EKVX = system: EKVX
SK-MEL-2 = system: SK-MEL-2
OVCAR-5 = system: OVCAR-5
A498 = system: A498
HL-60 = system: HL-60
SNB-75 = system: SNB-75
DU-145 = system: DU-145
UACC-257 = system: UACC-257
MCF7 = system: MCF7
786-0 = system: 786-0
COLO 205 = system: COLO 205
CCRF-CEM = system: CCRF-CEM
K562 = system: K562

Measured: GI50

CCCCCCCCCCCC1=C(O)C(=O)C(CC2=C(O)C(=O)C(CCCCCCCCCCC)=C(O)C2=O)=C(O)C1=O
inactive: OVCAR-4 40.7 µM | TK-10 46.6 µM | HT-29 > 100 µM | Malme-3M 44 µM | CAKI-1 60.5 µM | HCC 2998 > 100 µM | SF-268 26.5 µM | EKVX > 100 µM | SK-MEL-2 > 100 µM | OVCAR-5 > 100 µM | A498 52.2 µM | HL-60 > 10 µM | SNB-75 14.9 µM | DU-145 > 100 µM | UACC-257 > 100 µM | MCF7 > 100 µM | 786-0 59.6 µM | COLO 205 > 100 µM | CCRF-CEM 21.2 µM | K562 49.8 µM
